Common to all, as to test: NCI-60 cell line screen, 48 h
Test [1] deals with UO-31 renal.
The subject of test [2] is A549 NSCLC.
The test system of test [3] is HCT-116 colon.
Test [4] concerns PC-3 prostate.
The test system of test [5] is RPMI-8226 leukemia.
Test [6] has as its system SK-MEL-28 melanoma.
In test [7] the test system is UACC-62 melanoma.
For test [8], the system named is MDA-MB-435.
For test [9], the system named is MDA-MB-231 breast.
Test [10] has as its system MOLT-4 leukemia.

Structures are written as SMILES. Where “and” joins values, the source holds several entries; their conditions need not be identical. Equal entries are not always repeated.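 In this assay, cells in 96-well plates receive the compound at five concentrations for 48 hours. Endpoints are linearly interpolated between the surrounding concentrations. Here, GI50 denotes the concentration required for 50% inhibition of growth. Definition used: TGI = concentration required for complete inhibition of growth.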

`O=C(NCC1CC1)c1ccc(-c2cccc(C(=O)NC3CC3)c2)cc1`: the GI50 in test [1], in test [2], in [3], in test [4], in test [5] and in test [6] was over 25 µM throughout. In addition, the GI50 in test [7], in test [8], in test [9] and in test [10] was over 25 µM throughout. Further, the TGI in test [1], in test [2], in [3], in [4], in test [5] and in [6] was over 25 µM throughout. Besides, the TGI in test [7], in test [8], in test [9] and in test [10] was over 25 µM in each case.

For the compound `COc1ccc(C2=Nn3c(nnc3-c3cc(Cl)cc(Cl)c3Cl)SC2)cc1`, the GI50 in [1] was 0.379 µM; in test [2] it was 0.631 µM; in test [3] it was 0.393 µM; in [4] it was 0.687 µM; in [5], 0.627 µM; in test [7], 0.436 µM. For the same compound, the GI50 is 0.163 µM in test [8], 0.81 µM in test [9] and 1.49 µM in test [10]. For the same compound, the TGI is 29.2 µM in test [1]; over 37.4 µM in [2]; over 100 µM in test [3]; over 100 µM in test [4]; over 100 µM in [5]; over 100 µM in [6]. Further, the TGI is over 100 µM in test [7], 0.588 µM in [8], 26.2 µM in test [9] and over 100 µM in [10].

As for `CCOC(=O)Oc1c(OC)cc(C(=O)c2ccc(OC)c(O)c2OC)cc1OC`, the GI50 is 3.54 µM in [1]; 3.96 µM in [2]; 0.44 µM in test [3]; 0.562 µM in test [4]; 0.456 µM in [5]; 2.78 µM in test [6]. For the same compound, the GI50 was 3.82 µM in test [7], 0.288 µM in test [8], 3.31 µM in test [9] and 0.492 µM in test [10]. The TGI in test [1] is over 100 µM; in test [2], over 100 µM; in test [3] it was 12.8 µM; in test [4] it was over 100 µM; in test [5], over 100 µM; in test [6], over 100 µM. In addition, the TGI in test [7] is over 100 µM; in test [8] it was 1.01 µM; in [9], over 100 µM; in test [10], over 100 µM.

With `O=C(O)c1nc(NCc2nc3cc(Cl)ccc3o2)n[nH]1`, the GI50 in [1], in test [2], in test [3], in [4], in [5] and in [6] was over 100 µM throughout. Besides, the GI50 in test [7], in test [8], in test [9] and in test [10] was over 100 µM in each case. Moreover, the TGI in test [1], in test [2], in [3], in test [4], in test [5] and in test [6] was over 100 µM in each case. The TGI in [7], in test [8], in test [9] and in test [10] was over 100 µM throughout.

For the compound `Cc1ccc(S(=O)(=O)SC/C=C\CSS(=O)(=O)c2ccc(C)cc2)cc1`, the TGI was over 100 µM in test [1]; over 100 µM in test [2]; 29.7 µM and 41.4 µM in test [3]; over 100 µM in [4]; 16.5 µM and 47 µM in [5]; > 78.8 µM and 35.5 µM in [6]. Further, the TGI is > 79.9 µM and 45.5 µM in [7]; 27.6 µM in test [8]; over 31.6 µM in test [9]; 14.6 µM and 72.6 µM in test [10]. The GI50 in test [3] was 5.31 µM and 19.9 µM; in test [6] it was 39.7 µM and 18.8 µM.

`CCOc1ccccc1CCN=C1NC(=O)/C(=C/c2ccc3ncccc3c2)S1`: the GI50 in test [1] is 1.31 µM; in test [2] it was 1.23 µM; in [3] it was 0.995 µM; in [4], 0.562 µM; in test [5] it was 1.02 µM; in test [6] it was 5.22 µM. Besides, the GI50 in test [7] was 1.48 µM; in [8], 0.491 µM; in [9], 4.24 µM; in test [10], 4.02 µM. Besides, the TGI in test [1] was 15.9 µM; in [2], over 25 µM; in test [3] it was over 9.15 µM; in test [4], 3.99 µM; in test [5], 8.38 µM; in test [6] it was over 24.1 µM. Besides, the TGI was 10.3 µM in test [7], 1.71 µM in [8], 18.6 µM in [9] and over 25 µM in test [10].

As for `O=[N+]([O-])c1ccccc1N=Nc1c(O)[nH]c2cccc(C(F)(F)F)c12`, the TGI in test [1], in [2], in test [3], in test [4], in test [5] and in test [6] was over 100 µM in each case. In addition, the TGI in test [7] was over 100 µM; in test [8] it was 40.7 µM; in test [9] it was 91.3 µM; in [10], over 100 µM.

Take `CC1CC(C)CC(C)C(O)/C(C#N)=C/C=C/CC(C2CCCC2C(=O)O)OC(=O)CC(O)C(C)C1` (stereo unspecified): the GI50 in test [1] is 0.027 µM; in test [2] it was 0.0681 µM; in test [3], 0.0473 µM; in [4], 0.0434 µM; in test [5], 0.00486 µM; in test [6], 0.0262 µM. Also, the GI50 in test [7] was 0.0112 µM; in test [8], 0.0281 µM; in [9], 0.0193 µM; in test [10], 0.0269 µM. The TGI is 0.15 µM and 0.0217 µM in [1]; 0.496 µM and 0.919 µM in test [2]; 0.7 µM and 0.145 µM in [3]; 0.205 µM and 0.208 µM in test [4]; 0.0315 µM and < 0.145 µM in [5]; 0.0847 µM and 0.0392 µM in test [6]. The TGI was 0.0296 µM and 0.015 µM in test [7]; 0.0871 µM and 0.0731 µM in [8]; 0.0706 µM in [9]; 0.0641 µM and 0.209 µM in test [10].

As for `Oc1cc(Cc2ccccc2)c(Cc2ccccc2)cc1O`, the TGI in test [1], in test [2], in test [3], in [4], in [5] and in [6] was over 10 µM in each case. In addition, the TGI in [7], in test [8], in test [9] and in test [10] was over 10 µM in each case.

Turning to `CCCN1C(=O)NC(=O)C(CC)(N2C(=O)c3c(F)c(F)c(F)c(F)c3C2=O)C1=O` (stereo unspecified), the GI50 in [1] was 1.63 µM; in [2] it was 2.84 µM; in test [3], 1.48 µM; in test [4] it was 1.95 µM; in test [5], 0.596 µM; in [6] it was 1.71 µM. Besides, the GI50 is 1.99 µM in test [7], 2.25 µM in test [8], 1.99 µM in test [9] and 2.71 µM in [10]. Moreover, the TGI in test [1] was found to be 4.32 µM; in [2], 8.45 µM; in test [3], 4.93 µM; in test [4] it was 5.62 µM; in test [5], 3.14 µM; in [6], 3.22 µM. Moreover, the TGI turned out to be 5.94 µM in test [7], 6.52 µM in [8], 4.59 µM in [9] and 8.65 µM in [10].

For the compound `COc1ccc(-c2noc(C(=O)O)c2-c2cc(OC)c(OC)c(OC)c2)cc1`, the GI50 in test [1] was 5.45 µM; in test [2] it was 4.75 µM; in [3] it was 0.752 µM; in test [4], 1.33 µM; in test [5] it was 4.01 µM; in [6] it was 37.3 µM. The GI50 in test [7] is 11.1 µM; in test [8] it was 0.306 µM; in [9], 7.66 µM; in [10], 4.91 µM. The TGI in test [1], in test [2], in test [3], in test [4], in [5] and in test [6] was over 100 µM throughout. The TGI in [7] is over 100 µM; in test [8] it was 1.1 µM; in test [9] it was over 100 µM; in test [10] it was over 100 µM.

In the case of `O=S(=O)(Nc1ccc(Br)cc1)c1ccc(-c2cnc(C3CC3)o2)cc1`, the GI50 in [1] is 2.41 µM; in test [2], 3.85 µM; in test [3], 2.2 µM; in [4], 2.67 µM; in test [5] it was 2.62 µM; in [6] it was 10 µM. Besides, the GI50 in test [7] was 1.39 µM; in [8] it was 0.239 µM; in test [9], 3.77 µM; in test [10], 2.16 µM. Also, the TGI in [1] is 15.7 µM; in test [2], 22.5 µM; in test [3], 16 µM; in test [4], 15.5 µM; in test [5], 14.5 µM; in test [6] it was 22.9 µM. In addition, the TGI stood at 13.7 µM in test [7], 0.646 µM in test [8], 17.8 µM in test [9] and 24.2 µM in [10].

With `FC(F)(F)c1cccc(-c2nc3nc(Cl)c(Cl)nc3[nH]2)c1`, the TGI in test [1] is 3.88 µM; in test [2], over 40.3 µM; in [3], 12.1 µM; in [4], 9.37 µM; in test [5], 3.5 µM; in test [6], 27.3 µM. Moreover, the TGI in [7] stood at 24.5 µM; in test [8] it was 13 µM; in test [9], 8.39 µM; in [10] it was 10.4 µM.

For `C=C1CCC2C3(C)COC(C)(C)OC3CCC2(C)C1C/C=C1/C(=O)OCC1OC(C)=O` (stereo unspecified), the GI50 in test [1] was 6.27 µM; in [2], 3.5 µM; in [3], 1.1 µM; in test [4], 10.2 µM; in [5] it was 2.24 µM; in [6], 2.21 µM. Moreover, the GI50 in [7] is 4.04 µM; in test [8], 2.54 µM; in [9], 7.07 µM; in [10] it was 3.53 µM. Further, the TGI in [1] was 15.5 µM; in [2], 12.8 µM; in test [3] it was 2.31 µM; in [4], 26.2 µM; in [5], 7.49 µM; in [6] it was 4.94 µM. Besides, the TGI worked out at 17 µM in test [7], 11.3 µM in [8], 22.6 µM in test [9] and 14.3 µM in test [10].

Consider `Cc1c2cnccc2c(C)c2c1c1cc(C#N)ccc1n2C`, for which the GI50 is 0.137 µM in [1]; 0.1 µM in test [2]; 0.0434 µM in test [3]; 0.217 µM in test [4]; 0.202 µM in test [5]; 0.285 µM in test [6]. Moreover, the GI50 was 0.148 µM in [7], 0.271 µM in test [8], 0.237 µM in test [9] and 0.0959 µM in test [10]. In addition, the TGI in test [1] worked out at 0.869 µM; in test [2], 0.895 µM; in test [3] it was 0.593 µM; in test [4], 1.11 µM; in [5], 0.907 µM; in [6], 0.737 µM. Moreover, the TGI in test [7] is 0.343 µM; in test [8] it was 0.899 µM; in test [9], 1.1 µM; in test [10], 1.68 µM.

`N#C[Se]Cc1cc(-c2ccccc2)n(-c2ccc(S(N)(=O)=O)cc2)n1`: the GI50 in [1] is 1.49 µM; in test [2], 0.605 µM; in test [3], 0.383 µM; in test [4], 0.711 µM; in [5], 1.9 µM; in [6] it was 0.359 µM. The GI50 was 1.66 µM in test [7], 0.605 µM in test [8], 0.912 µM in test [9] and 0.433 µM in [10]. In addition, the TGI was found to be 5.96 µM in test [1]; 2.12 µM in test [2]; 1.32 µM in test [3]; 3.56 µM in test [4]; 5.02 µM in test [5]; 1.34 µM in test [6]. The TGI in test [7] stood at 3.75 µM; in test [8], 2.45 µM; in test [9] it was 3.12 µM; in test [10], 4.36 µM.

Values taken from PubChem BioAssay (NCI).
